Where “and” joins values, the source holds several entries; their conditions need not be identical. Equal entries are not always repeated.
Assays:
Phakopsora pachyrhizi [1] = assay: Glasshouse pot trial: efficacy on soybean rust on soybean (Glycine max), visual estimation of degree of infection on leaves; type: in vivo
Protocol: (§1) In the tables presented below, the following terms have the following meaning:
Glasshouse pot trials were conducted to evaluate the effect and efficacy of silthiofam on soybean rust disease on soybean (Glycine max).
The trial was divided in 11 treatments. In 4 of the treatments, silthiofam was applied in different amounts.
(§2) Silthiofam compositions used in this trial were prepared from the suspension concentrate containing 125 g/L of silthiofam, diluted with water to predetermined concentration and sprayed on the plants in the predetermined amounts.
In two of the treatments, silthiofam was applied in combination with additional ingredients.
First combination was of silthiofam and chitosan, wherein silthiofam was applied in an amount of 250 g/ha on the plant first and chitosan was applied subsequently in an amount of 200 g/ha.
Second combination was a combination of silthiofam and tagatose, wherein silthiofam was applied in an amount of 250 g/ha simultaneously with tagatose in an amount of 200 g/ha.
Further 6 treatments were current market available treatments of soybean rust applied in the label prescribed dose, wherein the compositions used were prepared from commercially available products prepared according to the respective label instructions and sprayed on the plants.
One treatment of the trial consisted of fungi inoculated plants which received no treatment.
Soybean plants were treated two times with silthiofam and other treatments. First treatment was applied when soybean plants reached stage BBCH16 and the second treatment was applied when soybean plants reached stage BBCH61. Growth stages were defined according to Compendium of Growth Stage Identification Keys for Mono- and Dicotyledonous Plants, Extended BBCH scale, 2nd Edition 1997, ISBN 3-9520749-3-4.
After silthiofam and other treatments were applied first time, plants were inoculated with Phakopsora pachyrhizi spores and evaluation of leaves condition and disease spread was done every 7 days.
(§3) Method used for evaluation of disease spread was visual estimation of degree of infection on leaves.
The experimental design of the pot trial was randomized design with 4 pot replications per treatment applied, wherein six soybean plants were planted per pot.
Treatments were the following:
Treatment 1: Plant inoculated with P. pachyrhizi, no treatment applied
Treatment 2: Treatment with flutriafol and azoxystrobin mixture, applied in concentration of 31.25 g flutriafol/ha and 37.5 g azoxystrobin/ha
Treatment 3: Silthiofam treatment applied in 250 g silthiofam/ha
Treatment 4: Silthiofam treatment applied in 500 g silthiofam/ha
Treatment 5: Silthiofam treatment applied in 250 g silthiofam/ha and 200 g/ha of tagatose
Treatment 6: Silthiofam treatment applied in 250 g silthiofam/ha and 200 g/ha of chitosan
Treatment 7: Mancozeb applied in 1.68 kg mancozeb/ha
Treatment 8: Chlorothalonil applied in 626.4 g chlorothalonil/ha
Treatment 9: Azoxystrobin applied in 37.5 g azoxystrobin/ha
Treatment 10: Boscalid applied in 294 g boscalid/ha
Treatment 11: Prothioconazole and tebuconazole mixture applied as 42 g prothioconazole/ha and 84 g tebuconazole/ha

soybean rust disease = assay: Field trial: efficacy on naturally infected soybean, visual estimation of degree of infection on leaves; type: in vivo, Glycine max
Protocol: as §1
Field trial was conducted to evaluate the effect and efficacy of silthiofam on soybean rust disease on soybean (Glycine max) wherein plants were naturally infected by the disease.
The trial was divided in the following […]:
one treatment where plants were left untreated and in which natural progression of the disease can be observed;
two treatments with silthiofam alone in different dosage amounts;
and four treatments where silthiofam was applied with other compounds, namely tagatose and chitosan in different dosage ratios.
Each treatment was applied on a plot of 6 ft*30 ft in size and was repeated in 4 replicates.
as §2
For each treatment, two applications of respective treatment were made with 19 days interval between. First application was made when soybean plant reached stage BBCH 64, and the second one when plant reached stage BBCH 73. Growth stages were defined according to Compendium of Growth Stage Identification Keys for Mono- and Dicotyledonous Plants, Extended BBCH scale, 2nd Edition 1997, ISBN 3-9520749-3-4.
as §3

Phakopsora pachyrhizi [2] = assay: Glasshouse pot trial: efficacy on soybean rust on soybean (Glycine max), visual estimation of degree of infection on leaves; type: in vivo; details: general statement; Phakopsora pachyrhizi and P. meibomiae

## C=CCNC(=O)c1c([Si](C)(C)C)sc(C)c1C [Silthiofam, N-allyl-4,5-dimethyl-2-(trimethylsilyl)thiophene-3-carboxamide]
Phakopsora pachyrhizi [1]; silthiofam 250 g/ha, 7/7 d after first/last application, 19 d after planting, LEALOW
  % efficacy: 71.5% and 90.9% and 93.6% and 88.9%
Phakopsora pachyrhizi [1]; silthiofam 250 g/ha, 7/7 d after first/last application, 19 d after planting, LEAMID
  % efficacy: 93.4% and 100.0% and 81.9% and 85.0%
Phakopsora pachyrhizi [1]; silthiofam 250 g/ha, 7/7 d after first/last application, 19 d after planting, LEAUPP
  % efficacy: 100.0%
Phakopsora pachyrhizi [1]; silthiofam 250 g/ha, 14/14 d after first/last application, 26 d after planting, LEALOW
  % efficacy: 89.0% and 82.0% and 84.7% and 84.1%
Phakopsora pachyrhizi [1]; silthiofam 250 g/ha, 14/14 d after first/last application, 26 d after planting, LEAMID
  % efficacy: 95.0% and 91.2% and 92.0% and 89.4%
Phakopsora pachyrhizi [1]; silthiofam 250 g/ha, 14/14 d after first/last application, 26 d after planting, LEAUPP
  % efficacy: 100.0%
Phakopsora pachyrhizi [1]; silthiofam 250 g/ha, 21/21 d after first/last application, 33 d after planting, LEALOW
  % efficacy: 78.0% and 76.0% and 82.0% and 80.0%
Phakopsora pachyrhizi [1]; silthiofam 250 g/ha, 21/21 d after first/last application, 33 d after planting, LEAMID
  % efficacy: 92.0% and 89.0% and 90.0% and 88.0%
Phakopsora pachyrhizi [1]; silthiofam 250 g/ha, 21/21 d after first/last application, 33 d after planting, LEAUPP
  % efficacy: 100.0%
Phakopsora pachyrhizi [1]; silthiofam 250 g/ha, 28/7 d after first/last application, 40 d after planting, LEALOW
  % efficacy: 82.0% and 80.0% and 84.0%
Phakopsora pachyrhizi [1]; silthiofam 250 g/ha, 28/7 d after first/last application, 40 d after planting, LEAMID
  % efficacy: 92.0% and 88.0% and 90.0%
Phakopsora pachyrhizi [1]; silthiofam 250 g/ha, 28/7 d after first/last application, 40 d after planting, LEAUPP
  % efficacy: 100.0%
Phakopsora pachyrhizi [1]; silthiofam 250 g/ha, 35/14 d after first/last application, 47 d after planting, LEAMID
  % efficacy: 78.0% and 82.0% and 80.0% and 84.0%
Phakopsora pachyrhizi [1]; silthiofam 250 g/ha, 35/14 d after first/last application, 47 d after planting, LEAUPP
  % efficacy: 94.5% and 98.0% and 95.5% and 92.9%
Phakopsora pachyrhizi [1]; silthiofam 250 g/ha, 42/21 d after first/last application, 54 d after planting, LEAMID
  % efficacy: 48.0% and 54.0% and 59.0% and 52.0%
Phakopsora pachyrhizi [1]; silthiofam 250 g/ha, 42/21 d after first/last application, 54 d after planting, LEAUPP
  % efficacy: 86.0% and 85.0% and 89.0%
Phakopsora pachyrhizi [1]; silthiofam 500 g/ha, 7/7 d after first/last application, 19 d after planting, LEALOW
  % efficacy: 85.8% and 95.5% and 93.6% and 97.3%
Phakopsora pachyrhizi [1]; silthiofam 500 g/ha, 7/7 d after first/last application, 19 d after planting, LEAMID
  % efficacy: 93.4% and 94.5% and 100.0%
Phakopsora pachyrhizi [1]; silthiofam 500 g/ha, 7/7 d after first/last application, 19 d after planting, LEAUPP
  % efficacy: 100.0%
Phakopsora pachyrhizi [1]; silthiofam 500 g/ha, 14/14 d after first/last application, 26 d after planting, LEALOW
  % efficacy: 92.0% and 90.0% and 94.7% and 91.9%
Phakopsora pachyrhizi [1]; silthiofam 500 g/ha, 14/14 d after first/last application, 26 d after planting, LEAMID
  % efficacy: 99.0% and 96.8% and 97.9%
Phakopsora pachyrhizi [1]; silthiofam 500 g/ha, 14/14 d after first/last application, 26 d after planting, LEAUPP
  % efficacy: 100.0%
Phakopsora pachyrhizi [1]; silthiofam 500 g/ha, 21/21 d after first/last application, 33 d after planting, LEALOW
  % efficacy: 89.0% and 86.0% and 92.0%
Phakopsora pachyrhizi [1]; silthiofam 500 g/ha, 21/21 d after first/last application, 33 d after planting, LEAMID
  % efficacy: 96.0% and 95.0% and 97.0%
Phakopsora pachyrhizi [1]; silthiofam 500 g/ha, 21/21 d after first/last application, 33 d after planting, LEAUPP
  % efficacy: 100.0%
Phakopsora pachyrhizi [1]; silthiofam 500 g/ha, 28/7 d after first/last application, 40 d after planting, LEALOW
  % efficacy: 88.0% and 90.0% and 85.0%
Phakopsora pachyrhizi [1]; silthiofam 500 g/ha, 28/7 d after first/last application, 40 d after planting, LEAMID
  % efficacy: 95.0% and 93.0% and 92.0%
Phakopsora pachyrhizi [1]; silthiofam 500 g/ha, 28/7 d after first/last application, 40 d after planting, LEAUPP
  % efficacy: 100.0%
Phakopsora pachyrhizi [1]; silthiofam 500 g/ha, 35/14 d after first/last application, 47 d after planting, LEAMID
  % efficacy: 92.0% and 89.0% and 90.0% and 86.0%
Phakopsora pachyrhizi [1]; silthiofam 500 g/ha, 35/14 d after first/last application, 47 d after planting, LEAUPP
  % efficacy: 98.9% and 100.0% and 90.9%
Phakopsora pachyrhizi [1]; silthiofam 500 g/ha, 42/21 d after first/last application, 54 d after planting, LEAMID
  % efficacy: 79.0% and 72.0% and 80.0% and 82.0%
Phakopsora pachyrhizi [1]; silthiofam 500 g/ha, 42/21 d after first/last application, 54 d after planting, LEAUPP
  % efficacy: 92.0% and 90.0% and 95.0% and 93.0%
Soybean rust disease; silthiofam 125 g/ha, 14/14 d after first/last application, LEALOW
  % efficacy: 88.9% and 84.3% and 63.4% and 77.3%
Soybean rust disease; silthiofam 125 g/ha, 14/14 d after first/last application, LEAMID
  % efficacy: 95.5% and 92.9% and 95.0% and 90.9%
Soybean rust disease; silthiofam 125 g/ha, 14/14 d after first/last application, LEAUPP
  % efficacy: 0.0%
Soybean rust disease; silthiofam 125 g/ha, 20/1 d after first/last application, LEALOW
  % efficacy: 68.2% and 56.0% and 64.1% and 69.1%
Soybean rust disease; silthiofam 125 g/ha, 20/1 d after first/last application, LEAMID
  % efficacy: 83.3% and 78.2% and 80.4%
Soybean rust disease; silthiofam 125 g/ha, 20/1 d after first/last application, LEAUPP
  % efficacy: 90.9% and 88.9% and 100.0% and 94.4%
Soybean rust disease; silthiofam 125 g/ha, 27/8 d after first/last application, LEALOW
  % efficacy: 35.00% and 42.00% and 36.00%
Soybean rust disease; silthiofam 125 g/ha, 27/8 d after first/last application, LEAMID
  % efficacy: 77.9% and 75.0% and 78.6% and 80.3%
Soybean rust disease; silthiofam 125 g/ha, 27/8 d after first/last application, LEAUPP
  % efficacy: 89.3% and 85.7% and 93.3% and 95.2%
Soybean rust disease; silthiofam 125 g/ha, 34/15 d after first/last application, LEALOW
  % efficacy: 45.0% and 35.0% and 52.0% and 55.0%
Soybean rust disease; silthiofam 125 g/ha, 34/15 d after first/last application, LEAMID
  % efficacy: 72.0% and 67.0% and 72.7%
Soybean rust disease; silthiofam 125 g/ha, 34/15 d after first/last application, LEAUPP
  % efficacy: 90.9% and 86.2% and 92.2%
Soybean rust disease; silthiofam 250 g/ha, 14/14 d after first/last application, LEALOW
  % efficacy: 66.7% and 56.9% and 73.2% and 59.1%
Soybean rust disease; silthiofam 250 g/ha, 14/14 d after first/last application, LEAMID
  % efficacy: 81.8% and 78.6% and 70.0% and 63.6%
Soybean rust disease; silthiofam 250 g/ha, 14/14 d after first/last application, LEAUPP
  % efficacy: 0.0%
Soybean rust disease; silthiofam 250 g/ha, 20/1 d after first/last application, LEALOW
  % efficacy: 60.2% and 45.3% and 57.7% and 65.4%
Soybean rust disease; silthiofam 250 g/ha, 20/1 d after first/last application, LEAMID
  % efficacy: 68.8% and 67.3% and 78.4%
Soybean rust disease; silthiofam 250 g/ha, 20/1 d after first/last application, LEAUPP
  % efficacy: 81.8% and 83.3% and 90.0% and 100.0%
Soybean rust disease; silthiofam 250 g/ha, 27/8 d after first/last application, LEALOW
  % efficacy: 55.00% and 65.00% and 58.00% and 48.00%
Soybean rust disease; silthiofam 250 g/ha, 27/8 d after first/last application, LEAMID
  % efficacy: 61.8% and 61.1% and 68.6% and 62.1%
Soybean rust disease; silthiofam 250 g/ha, 27/8 d after first/last application, LEAUPP
  % efficacy: 82.1% and 77.1% and 83.3% and 88.1%
Soybean rust disease; silthiofam 250 g/ha, 34/15 d after first/last application, LEALOW
  % efficacy: 25.0% and 22.0% and 30.0% and 35.0%
Soybean rust disease; silthiofam 250 g/ha, 34/15 d after first/last application, LEAMID
  % efficacy: 62.0% and 58.0% and 56.8%
Soybean rust disease; silthiofam 250 g/ha, 34/15 d after first/last application, LEAUPP
  % efficacy: 67.3% and 62.1% and 54.5% and 57.8%
Phakopsora pachyrhizi [2]
  activity against soybean rust causing fungi: high activity
